Laboratory results from patent US8389527B2, “Substituted imidazopyridazines useful as kinase inhibitors” (Bristol-Myers Squibb Company, priority 2008, dated 2013).

Experiments:
HCT116 = experiment: Cell proliferation inhibition assay (MTT, CellTiter96); format: cell-based; settings: Homo sapiens, HCT-116; HCT116 cells, 72 h with compound, MTT readout
Procedure: B. Cell Proliferation Inhibition Assay
Compounds were evaluated for their ability to inhibit cell proliferation, using an assay that measures mitochondrial metabolic activity, that is directly correlated with cell numbers. Cells were plated at 2000 cells/well in 96-well plates and were cultured for 24 h in RPMI-1640 supplemented with 2% fetal bovine serum, before test compounds were added. Compounds were diluted in culture medium such that the final concentration of dimethyl sulfoxide never exceeded 1%. Following the addition of compounds, the cells were cultured for an additional 72 h before cell viability was determined by measuring the conversion of 3-(4,5-dimethylthiazol-2-yl)-2,5-diphenyltetrazolium bromide (MTT) dye using the CellTiter96 kit (Promega).

recombinant CK2A2 = target: T1, recombinant CK2A2 (Homo sapiens, UniProt P19784); experiment: CK2 kinase assay (CK2A2), [γ-33P]ATP filter-binding; format: biochemical; settings: recombinant CK2A2 5 nM, ATP 5 μM, 10 μM peptide substrate, 30° C. 1 h
T1 construct: purchased Upstate Biotechnology
T1 sequence (P19784 whole entry): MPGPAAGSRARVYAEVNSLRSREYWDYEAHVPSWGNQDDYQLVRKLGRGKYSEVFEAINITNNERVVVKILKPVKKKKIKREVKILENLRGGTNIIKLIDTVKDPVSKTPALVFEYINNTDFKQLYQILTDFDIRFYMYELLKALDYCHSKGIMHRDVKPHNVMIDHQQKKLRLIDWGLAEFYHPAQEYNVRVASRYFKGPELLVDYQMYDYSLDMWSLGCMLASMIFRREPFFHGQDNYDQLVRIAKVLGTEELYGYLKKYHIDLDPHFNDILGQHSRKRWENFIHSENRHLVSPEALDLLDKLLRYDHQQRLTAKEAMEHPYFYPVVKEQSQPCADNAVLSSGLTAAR
Procedure: (§1) The effectiveness of compounds of the present invention as inhibitors of protein kinases can be readily tested by assays known to those skilled in the art. For example, in vitro protein kinase assays may be conducted with a relevant purified protein kinase and an appropriate synthetic substrate to determine the inhibitory activities of the compounds. […] Reaction mixtures were incubated at 30° C. for 1 h, and reaction products were captured by binding to phosphocellulose (P81) filter plates. Incorporation of radioactive phosphate into the peptide substrate was determined by liquid scintillation counting. The potency of compounds in inhibiting CK2 is expressed as IC50, defined as the concentrations of compounds required to inhibit the enzymatic activity by 50%.

recombinant CK2A1 = target: T2, recombinant CK2A1 (Homo sapiens, UniProt P68400); experiment: CK2 kinase assay (CK2A1), [γ-33P]ATP filter-binding; format: biochemical; settings: recombinant CK2A1 10 nM, ATP 25 μM, 10 μM peptide substrate, 30° C. 1 h
T2 construct: purchased Invitrogen
T2 sequence (P68400 whole entry): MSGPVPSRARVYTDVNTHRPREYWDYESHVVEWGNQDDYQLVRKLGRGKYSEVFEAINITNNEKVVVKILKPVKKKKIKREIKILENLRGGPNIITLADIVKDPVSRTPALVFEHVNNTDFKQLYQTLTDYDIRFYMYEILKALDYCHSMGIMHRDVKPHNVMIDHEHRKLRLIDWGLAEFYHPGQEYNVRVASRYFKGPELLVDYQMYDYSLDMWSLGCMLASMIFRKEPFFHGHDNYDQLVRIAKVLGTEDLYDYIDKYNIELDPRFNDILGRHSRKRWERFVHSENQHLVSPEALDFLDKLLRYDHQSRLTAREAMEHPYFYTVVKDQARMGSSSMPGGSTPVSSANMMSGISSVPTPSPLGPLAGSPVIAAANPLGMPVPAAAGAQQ
Procedure: as §1

Compound	IC50 (HCT116) [nM]	IC50 (recombinant CK2A2) [nM]	IC50 (recombinant CK2A1) [nM]
Nc1cc(N[C@H]2CC[C@H](N)CC2)nn2c(C(=O)Nc3ccncc3)cnc12 [Example 39, 8-amino-6-(4-aminocyclohexylamino)-N-(pyridin-4-yl)imidazo[1,2-b]pyridazine-3-carboxamide]	9950	43	102
O=C(Nc1ccncc1F)c1cnc2c(Nc3cccc(N[C@H]4CC[C@H](O)CC4)n3)cc(N[C@H]3CC[C@H](O)CC3)nn12 [Example 45, N-(3-fluoro-4-pyridinyl)-6-((trans-4-hydroxycyclohexyl)amino)-8-((6-((trans-4-hydroxycyclohexyl)amino)-2-pyridinyl)amino)imidazo[1,2-b]pyridazine-3-carboxamide]	140	8	34
CC(=O)Nc1cccc(NC(=O)c2cnc3c(NC4CC4)cc(N[C@H]4CC[C@H](N)CC4)nn23)c1 [Example 83, N-(3-acetamidophenyl)-6-((trans)-4-aminocyclohexylamino)-8-(cyclopropylamino)imidazo[1,2-b]pyridazine-3-carboxamide]	> 1000	4390	12300
O=C(Nc1ccncc1F)c1cnc2c(NC3CC3)cc(N[C@H]3CC[C@H](NC(=O)[C@H]4CCCN4)CC3)nn12 [Example 104, 8-(cyclopropylamino)-N-(3-fluoro-4-pyridinyl)-6-((trans-4-(D-prolylamino)cyclohexyl)amino)imidazo[1,2-b]pyridazine-3-carboxamide]	200	10	38
NCC(=O)N[C@H]1CC[C@H](Nc2cc(NC3CC3)c3ncc(C(=O)Nc4ccncc4F)n3n2)CC1 [Example 124, 8-(cyclopropylamino)-N-(3-fluoro-4-pyridinyl)-6-((trans-4-(glycylamino)cyclohexyl)amino)imidazo[1,2-b]pyridazine-3-carboxamide]	300	8	31
C[C@H](N)C(=O)N[C@H]1CC[C@H](Nc2cc(NC3CC3)c3ncc(C(=O)Nc4ccnc(F)c4)n3n2)CC1 [Example 134, 6-((trans-4-(L-alanylamino)cyclohexyl)amino)-8-(cyclopropylamino)-N-(2-fluoro-4-pyridinyl)imidazo[1,2-b]pyridazine-3-carboxamide]	170	13	55
N#CCC(=O)N[C@H]1CC[C@H](Nc2cc(NC3CC3)c3ncc(C(=O)Nc4ccnc(F)c4)n3n2)CC1 [Example 138, 6-((trans-4-((cyanoacetyl)amino)cyclohexyl)amino)-8-(cyclopropylamino)-N-(2-fluoro-4-pyridinyl)imidazo [1,2-b]pyridazine-3-carboxamide]	610	9	21
NCCCC(=O)N[C@H]1CC[C@H](Nc2cc(NC3CC3)c3ncc(C(=O)Nc4ccnc(F)c4)n3n2)CC1 [Example 143, 6-((trans-4-((4-aminobutanoyl)amino)cyclohexyl)amino)-8-(cyclopropylamino)-N-(2-fluoro-4-pyridinyl)imidazo [1,2-b]pyridazine-3-carboxamide]	340	70	199
O=C(Nc1ccnc(F)c1)c1cnc2c(NC3CC3)cc(N[C@H]3CC[C@H](NC(=O)C4CCCNC4)CC3)nn12 (stereo partly drawn) [Example 144, 8-(cyclopropylamino)-N-(2-fluoro-4-pyridinyl)-6-((trans-4-((3-piperidinylcarbonyl)amino)cyclohexyl)amino) imidazo[1,2-b]pyridazine-3-carboxamide]	> 2500	70	183
N[C@@H](C(=O)N[C@H]1CC[C@H](Nc2cc(NC3CC3)c3ncc(C(=O)Nc4ccnc(Cl)c4)n3n2)CC1)c1ccccc1 [Example 172, 6-((trans-4-(((2R)-2-amino-2-phenylacetyl)amino)cyclohexyl)amino)-N-(2-chloro-4-pyridinyl)-8-(cyclopropylamino)imidazo [1,2-b]pyridazine-3-carboxamide]	360	0.9	37.3
N[C@H](Cc1cccnc1)C(=O)N[C@H]1CC[C@H](Nc2cc(NC3CC3)c3ncc(C(=O)Nc4ccnc(Cl)c4)n3n2)CC1 [Example 202, N-(2-chloro-4-pyridinyl)-8-(cyclopropylamino)-6-((trans-4-((3-(3-pyridinyl)-D-alanyl)amino)cyclohexyl)amino)imidazo [1,2-b]pyridazine-3-carboxamide]	430	1.7	9.5
COCCNC(=O)N[C@H]1CC[C@H](Nc2cc(NC3CC3)c3ncc(C(=O)Nc4ccnc(Cl)c4)n3n2)CC1 [Example 276, N-(2-chloro-4-pyridinyl)-8-(cyclopropylamino)-6-((trans-4-(((2-methoxyethyl)carbamoyl)amino)cyclohexyl)amino)imidazo [1,2-b]pyridazine-3-carboxamide]	160	1.1	15.5

Continued, values first:

IC50 (HCT116) [nM]	IC50 (recombinant CK2A2) [nM]	IC50 (recombinant CK2A1) [nM]	Compound
590	1.5	25.9	C[C@H](CN)C(=O)N[C@H]1CC[C@H](Nc2cc(NC3CC3)c3ncc(C(=O)Nc4ccnc(Cl)c4)n3n2)CC1 [Example 146, 6-((trans-4-(((2R)-3-amino-2-methylpropanoyl)amino)cyclohexyl)amino) N-(2-chloro-4-pyridinyl)-8-(cyclopropylamino)imidazo [1,2-b]pyridazine-3-carboxamide]
280	2.1	34.1	CNC(C)(C)C(=O)N[C@H]1CC[C@H](Nc2cc(NC3CC3)c3ncc(C(=O)Nc4ccnc(Cl)c4)n3n2)CC1 [Example 159, N-(2-chloro-4-pyridinyl)-8-(cyclopropylamino)-6-((trans-4-((N,2-dimethylalanyl)amino)cyclohexyl)amino) imidazo[1,2-b]pyridazine-3-carboxamide]
560	0.4	29.6	NCC(=O)N[C@H]1CC[C@H](Nc2cc(NC3CC3)c3ncc(C(=O)Nc4ccnc(Cl)c4)n3n2)CC1 [Example 163, N-(2-chloro-4-pyridinyl)-8-(cyclopropylamino)-6-((trans-4-(glycylamino)cyclohexyl)amino)imidazo [1,2-b]pyridazine-3-carboxamide]
> 2500	2.1	22.8	CC(C)CC(=O)N[C@H]1CC[C@H](Nc2cc(NC3CC3)c3ncc(C(=O)Nc4ccnc(Cl)c4)n3n2)CC1 [Example 164, N-(2-chloro-4-pyridinyl)-8-(cyclopropylamino)-6-((trans-4-((3-methylbutanoyl)amino)cyclohexyl)amino) imidazo[1,2-b]pyridazine-3-carboxamide]
> 2500	0.4	26.5	COCC(=O)N[C@H]1CC[C@H](Nc2cc(NC3CC3)c3ncc(C(=O)Nc4ccnc(Cl)c4)n3n2)CC1 [Example 167, N-(2-chloro-4-pyridinyl)-8-(cyclopropylamino)-6-((trans-4-((methoxyacetyl)amino)cyclohexyl)amino) imidazo[1,2-b]pyridazine-3-carboxamide]
220	1.7	17.4	C[C@@H](O)CC(=O)N[C@H]1CC[C@H](Nc2cc(NC3CC3)c3ncc(C(=O)Nc4ccnc(Cl)c4)n3n2)CC1 [Example 195, N-(2-chloro-4-pyridinyl)-8-(cyclopropylamino)-6-((trans-4-(((3R)-3-hydroxybutanoyl)amino)cyclohexyl)amino) imidazo[1,2-b]pyridazine-3-carboxamide]
230	0.8	13.5	N[C@@H](CO)C(=O)N[C@H]1CC[C@H](Nc2cc(NC3CC3)c3ncc(C(=O)Nc4ccnc(Cl)c4)n3n2)CC1 [Example 197, N-(2-chloro-4-pyridinyl)-8-(cyclopropylamino)-6-((trans-4-(L-serylamino)cyclohexyl)amino)imidazo [1,2-b]pyridazine-3-carboxamide]
90	1.5	3.6	O=C(Nc1ccnc(Cl)c1)c1cnc2c(NC3CC3)cc(N[C@H]3CC[C@H](NC(=O)C4COCCN4)CC3)nn12 (stereo partly drawn) [Example 198, N-(2-chloro-4-pyridinyl)-8-(cyclopropylamino)-6-((trans-4-((3-morpholinylcarbonyl)amino)cyclohexyl)amino)imidazo [1,2-b]pyridazine-3-carboxamide]
400	0.8	1.9	CN(C)[C@H]1CCN(C(=O)N[C@H]2CC[C@H](Nc3cc(NC4CC4)c4ncc(C(=O)Nc5ccnc(Cl)c5)n4n3)CC2)C1 [Example 272, N-(2-chloro-4-pyridinyl)-8-(cyclopropylamino)-6-((trans-4-((((3S)-3-(dimethylamino)-1-pyrrolidinyl)carbonyl)amino)cyclohexyl)amino) imidazo[1,2-b]pyridazine-3-carboxamide]
